Source: patent US20090326007A1, “Compounds and methods for modulating sir2 protein activity” (priority 2007, published 2009)
Entries after “also recorded” stand apart in the source; their conditions may differ. Where two headings read alike, the source gives them in different places. *1 amine or outer side, *2 acyl side, *3 side chain or, on linkers, in order; H or OH if unused. Where a SMILES comes first, the peptide text is derived from it. Bridges are numbered along the chain shown (N, C = ends). [ ]: non-standard residue; d: D form. X1 = CC(C)CCCCCCCCC[C@H](CC(=O)[*:1])O[*:2]

Experiments:
[1] = biological target: T1, Hst2 (Saccharomyces cerevisiae, UniProt P53686); experiment: SAR analysis, fluorigenic assay at 50 and 500 μM; type: biochemical; settings: for inhibition of the Hst2 deacetylase reaction by metal ions (in words): FIG. 2, 50 μM and 500 μM compound
T1 sequence (P53686 1-294): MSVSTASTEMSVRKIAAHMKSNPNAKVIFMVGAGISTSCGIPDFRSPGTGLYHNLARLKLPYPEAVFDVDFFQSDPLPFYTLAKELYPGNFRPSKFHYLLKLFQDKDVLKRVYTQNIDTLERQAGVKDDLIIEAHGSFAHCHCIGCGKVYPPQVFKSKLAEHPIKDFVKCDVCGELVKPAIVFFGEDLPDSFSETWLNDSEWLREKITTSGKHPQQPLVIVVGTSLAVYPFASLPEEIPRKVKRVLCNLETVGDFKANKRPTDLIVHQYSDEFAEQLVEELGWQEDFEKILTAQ
Description: Structure Activity Relationship (SAR) Analysis.

[2] = biological target: T1, Hst2; experiment: IC50 determination, fluorigenic deacetylase assay, Hst2
Protocol: (§1) IC50 Determination. […] The dose-response curves were then fit to one-site competition or sigmoidal-dose response curves as appropriate in [sequence] PRISM (GraphPad Software, La Jolla, Calif.) and the IC50 was determined. Three independent IC50 measurements were performed for each compound and the average and standard deviation are reported.
The resulting deacetylase activity for the three experiments was averaged and reported as a percentage relative to control wells containing no inhibitor.

[3] = biological target: T1, Hst2; experiment: Competition assay (inhibition mode versus NAD+ and acetyl-lysine substrate); type: biochemical
Protocol: Competition Assay. […] The fluorigenic assay described above was used with a fixed enzyme concentration of 1 μM. When competition with NAD^+ was being tested, the FLUOR DE LYS-SIRT1 deacetylase substrate was held at a constant concentration of 100 μM and the NAD^+ was titrated from ⅓-5× KmNAD+ (5-80 μM). […] The inhibitors were titrated from ˜½-several times their estimated Ki as indicated. The reaction time was 15 minutes, and each condition was tested in duplicate. The Km, kcat and kcat/Km values were determined by direct fit of the data in SIGMAPLOT (Systat Software, Point Richmond, Calif.) to the Michealis-Menten equation. The Ki and Kis (the slope and intercept inhibition constants, respectively) and the competition type were also determined by a direct fit in SIGMAPLOT to both partial and full competitive, noncompetitive, uncompetitive and mixed competition models. Best-fit models were determined by several statistical methods including R^2, AICs and Sy.x as well as empirical evaluation of α and β values.
To determine the mechanism of inhibition of the compounds identified by HTS and to gain insight as to where these compounds may bind to the enzyme, inhibition modes were determined by varying each of the substrates with the other maintained at a fixed, saturating concentration (Table 11).

[4] = biological target: T2, full-length human SIRT1 (Homo sapiens, UniProt Q96EB6); experiment: IC50 determination, fluorigenic deacetylase assay, FL SIRT1
T2 sequence (Q96EB6 1-747): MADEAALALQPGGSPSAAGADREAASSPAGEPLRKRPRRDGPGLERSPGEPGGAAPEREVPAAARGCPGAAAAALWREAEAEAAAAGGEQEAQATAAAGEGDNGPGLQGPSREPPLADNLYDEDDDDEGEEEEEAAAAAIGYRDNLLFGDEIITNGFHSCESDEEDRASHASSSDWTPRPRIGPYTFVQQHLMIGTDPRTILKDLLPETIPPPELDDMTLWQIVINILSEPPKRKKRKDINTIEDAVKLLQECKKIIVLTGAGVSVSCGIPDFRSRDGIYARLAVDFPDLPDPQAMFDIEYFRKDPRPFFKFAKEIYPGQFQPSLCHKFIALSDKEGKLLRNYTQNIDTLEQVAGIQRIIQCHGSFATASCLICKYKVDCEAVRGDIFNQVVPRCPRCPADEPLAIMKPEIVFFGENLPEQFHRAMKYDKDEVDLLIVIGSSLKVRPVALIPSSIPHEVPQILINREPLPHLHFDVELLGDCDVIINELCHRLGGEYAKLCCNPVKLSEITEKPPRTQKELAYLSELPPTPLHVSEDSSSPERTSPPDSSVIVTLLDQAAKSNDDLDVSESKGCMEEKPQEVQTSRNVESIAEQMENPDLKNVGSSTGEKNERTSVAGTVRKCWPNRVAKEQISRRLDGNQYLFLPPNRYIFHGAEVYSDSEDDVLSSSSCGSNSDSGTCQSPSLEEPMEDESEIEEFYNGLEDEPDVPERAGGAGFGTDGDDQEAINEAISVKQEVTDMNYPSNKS
Protocol: Cells were harvested and lysed by sonication in buffer containing 50 mM Tris, pH 7.5, 200 mM NaCl, 5 mM imidizole, 10 mM β-mercaptoethanol (BME) and 0.1 mg/mL PMSF. Soluble FL SIRT1 was purified by Ni-NTA (Qiagen, Valencia, Calif.) in a buffer containing 50 mM Tris, pH 7.5, 300 mM NaCl, 10 mM BME, 5% glycerol and 30-600 mM imidizole followed by SUPERDEX-200 gel filtration in buffer containing 50 mM Tris, pH 7.5, 150 mM NaCl, and 10 mM BME. FL SIRT1 eluted between the 670 kDa and 158 kDa globular protein standards. Since SIRT1 is known to aggregate after several days at 4° C., the protein was aliquoted and frozen at −80° C. for use in fluorigenic assays.
as §1

[5] = biological target: T3, human SIRT2 (Homo sapiens, UniProt Q8IXJ6); experiment: Inhibition assay against human SIRT2 (fluorigenic); settings: for inhibitory activity against human SIRT2 (in words): 50 or 100 μM compound; for remaining activity at 50 µM: read-out: percent of residual enzyme activity, SIRT2
T3 sequence (Q8IXJ6 1-352 isoform Q8IXJ6-2): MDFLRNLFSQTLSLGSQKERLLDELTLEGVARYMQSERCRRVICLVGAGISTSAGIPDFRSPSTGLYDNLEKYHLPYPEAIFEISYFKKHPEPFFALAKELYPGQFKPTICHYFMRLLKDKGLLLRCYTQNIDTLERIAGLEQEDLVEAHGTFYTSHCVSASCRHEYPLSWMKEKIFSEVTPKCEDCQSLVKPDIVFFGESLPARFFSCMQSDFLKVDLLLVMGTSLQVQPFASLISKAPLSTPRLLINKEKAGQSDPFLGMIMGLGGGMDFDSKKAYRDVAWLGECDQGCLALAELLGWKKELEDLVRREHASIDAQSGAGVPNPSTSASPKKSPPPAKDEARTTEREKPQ
Protocol: (§2) Human recombinant SIRT3 was purchased from Enzo Life Sciences.
(§3) Inhibition Assay Against Human SIRT2 and SIRT3. […] Two independent measurements were performed for each compound and the average and standard deviation are reported.

[6] = biological target: T4, human SIRT3 (Homo sapiens, UniProt Q9NTG7); experiment: Inhibition assay against human SIRT3 (fluorigenic); settings: for remaining activity at 50 µM: read-out: percent of residual enzyme activity, SIRT3
T4 sequence (Q9NTG7 1-399): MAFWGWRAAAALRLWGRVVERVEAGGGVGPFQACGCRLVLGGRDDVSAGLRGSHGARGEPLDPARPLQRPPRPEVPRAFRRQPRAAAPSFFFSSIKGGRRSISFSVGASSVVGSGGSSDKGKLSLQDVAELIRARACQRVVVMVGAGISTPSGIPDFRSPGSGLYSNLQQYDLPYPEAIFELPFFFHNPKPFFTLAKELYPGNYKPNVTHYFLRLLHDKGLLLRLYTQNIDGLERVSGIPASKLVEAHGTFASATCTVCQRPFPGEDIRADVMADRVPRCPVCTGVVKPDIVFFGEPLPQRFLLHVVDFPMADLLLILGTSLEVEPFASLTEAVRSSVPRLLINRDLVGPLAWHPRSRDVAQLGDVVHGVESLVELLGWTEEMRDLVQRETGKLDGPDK
Protocol: as §2, §3

[7] = substrate NAD+ varied, acetyl-lysine substrate 100 μM
[8] = substrate acetyl-lysine varied, NAD+ 160 μM
[9] = substrate NAD+ varied, read-out: Ki
[10] = substrate acetyl-lysine varied, read-out: Ki
[11] = read-out: Hst2 IC50, Table 5, 160 μM NAD+, 100 μM substrate, 1 μM Hst2, 15 min
[12] = read-out: SIRT1 IC50, Table 5, 240 μM NAD+, 200 μM substrate, 1 μM FL SIRT1, 15 min
[13] = 50 μM compound, relative to control without inhibitor

[Ca+2] [Ca^2+]
inhibition of the Hst2 deacetylase reaction by metal ions (in words) [1]: are not

O=c1[nH]c(=S)[nH]c(-c2ccccc2)c1Cc1c(O)ccc2ccccc12 [Cambinol (4), Cambinol, reference compound]
IC50 [2]: > 1000 µM

[Cd+2] [Cd^2+]
inhibition of the Hst2 deacetylase reaction by metal ions (in words) [1]: inhibitors

[Co+2] [Co^2+]
inhibition of the Hst2 deacetylase reaction by metal ions (in words) [1]: inhibitors

CC(=O)[O][Cd][O]C(C)=O [Compound 11a, cadmium acetate]
IC50 [2]: 1 ± 0.2 µM
IC50 values (range in words) ([2]; Table 5): sub-micromolar

S=c1ccccn1[O][Zn][O]n1ccccc1=S [Compound 11b, zinc pyrithione]
Ki ([3]; Ki, substrate NAD+ varied): 0.26 ± 0.08 µM
Ki ([3]; Ki, substrate acetyl-lysine varied): 0.7 ± 0.1 µM
kcat ([3]; substrate NAD+ varied): 0.0145 ± 0.00083 s⁻¹
Inhibition Mechanism [3, 7]: fully mixed
kcat ([3]; substrate acetyl-lysine varied): 0.0217 ± 0.0033 s⁻¹
Inhibition Mechanism [3, 8]: fully non-competitive; also recorded: NC (full)
α (mixed inhibition model) ([3]; with respect to NAD+): 2.2
IC50 [2]: 0.65 ± 0.05 µM
IC50 values (range in words) [2]: sub-micromolar
IC50 [4]: 2.7 ± 0.2 µM

CCc1ccc(OCCCC(=O)Oc2ccc3c(c2)oc(=O)c2ccccc23)cc1 [Compound 12a, 4-(4-Ethyl-phenoxy)-butyric acid 6-oxo-6H-benzo[c]chromen-3-yl ester]
activity at 50 µM ([1]; Table 8, 50 μM compound, relative to control): < 1%
activity at 500 µM ([1]; Table 8, 500 μM compound, relative to control, read-out: % Activity 500): < 1%
kcat ([3]; substrate NAD+ varied): 0.025 ± 0.005 s⁻¹
Inhibition Mechanism [3, 7]: fully non-competitive; also recorded: NC (full)
Ki [3, 9]: 1.2 ± 0.2 µM
kcat ([3]; substrate acetyl-lysine varied): 0.0163 ± 0.00067 s⁻¹
Inhibition Mechanism [3, 8]: partial non-competitive
Ki [3, 10]: 6.3 ± 1.7 µM
inhibitory activity against human SIRT2 (in words) [5]: potent inhibitor
remaining activity at 50 µM [5]: 2.4 ± 0.3%
remaining activity at 50 µM [6]: 89 ± 3.3%
IC50 values (range in words) ([2]; Table 5): low micromolar
IC50 [2, 11]: 6.5 ± 1.3 µM
IC50 [4, 12]: 6 ± 0.4 µM

O=C(O)CCN1Cc2ccccc2C1=O [Compound 13a, 3-(1-Oxo-1,3-dihydro-isoindol-2-yl)-propionic acid]
kcat ([3]; substrate NAD+ varied): 0.0122 ± 0.00217 s⁻¹
Inhibition Mechanism [3, 7]: fully non-competitive; also recorded: NC (full)
Ki [3, 9]: 30 ± 6 µM
kcat ([3]; substrate acetyl-lysine varied): 0.0167 ± 0.0017 s⁻¹
Inhibition Mechanism [3, 8]: fully non-competitive; also recorded: NC (full)
Ki [3, 10]: 39 ± 7 µM
inhibitory activity against human SIRT2 (in words) [5]: only weak inhibitory activity
remaining activity at 50 µM [5]: 89 ± 1.8%
inhibitory activity against human SIRT3 (in words) ([6]; 50 or 100 μM compound): only weak inhibitory activity
remaining activity at 50 µM [6]: 91 ± 4.3%
IC50 values (range in words) ([2]; Table 5): low micromolar
IC50 [4, 12]: 80 ± 5 µM

C[S+]([O-])CCC(C(=O)O)N1C(=O)c2ccccc2C1=O (centres unmarked) [Compound 0032]
IC50 ([2]; Table 10, Hst2): No Inh.

CC(C)C(=O)CCN1C(=O)c2ccccc2C1=O [Compound 04265]
IC50 ([2]; Table 10, Hst2): No Inh.

O=C(O)CCN1C(=O)c2cc(Cl)c(Cl)cc2C1=O [Compound 39008]
IC50 ([2]; Table 10, Hst2): No Inh.

Nc1ccc2c(c1)C(=O)N(CCC(=O)O)C2 [Compound 42071]
IC50 ([2]; Table 10, Hst2): No Inh.

O=C(O)CCN1C(=O)c2ccc(-c3nc4ccccc4c(=O)o3)cc2C1=O [Compound 47054]
IC50 ([2]; Table 10, Hst2): No Inh.

O=C1c2ccccc2C(=O)N1CCBr [Compound 91032]
IC50 ([2]; Table 10, Hst2): No Inh.

O=C(O)CCCN1C(=O)c2ccccc2C1=O [Compound 427032]
IC50 ([2]; Table 10, Hst2): No Inh.

[Cu+] [Cu^1+]
inhibition of the Hst2 deacetylase reaction by metal ions (in words) [1]: inhibited Hst2 to similar extents

[Fe+2] [Fe^2+]
inhibition of the Hst2 deacetylase reaction by metal ions (in words) [1]: inhibited Hst2 to similar extents

[Hg+2] [Hg^2+]
inhibition of the Hst2 deacetylase reaction by metal ions (in words) [1]: inhibitors

[Mg+2] [Mg^2+]
inhibition of the Hst2 deacetylase reaction by metal ions (in words) [1]: are not

[Ni+2] [Ni^2+]
inhibition of the Hst2 deacetylase reaction by metal ions (in words) [1]: inhibitors

Cn1cc(C2=C(c3cn(CCCSC(=N)N)c4ccccc34)C(=O)NC2=O)c2ccccc21 [Ro 31-8220 (6), Ro 31-8220, reference compound]
IC50 [2, 11]: 20 ± 0.9 µM

CC(NC(=O)c1ccccc1/N=C/c1c(O)ccc2ccccc12)c1ccccc1 (centres unmarked) [Sirtinol (2), Sirtinol, reference compound]
IC50 [2, 11]: 48 ± 11 µM

O=C1CCc2c(ccc3ccccc23)O1 [Splitomycin (3), Splitomycin, reference compound]
IC50 [2, 11]: > 600 µM

Cc1ccc(C(=O)Nc2ccc(S(=O)(=O)O)c3cc(S(=O)(=O)O)cc(S(=O)(=O)O)c23)cc1NC(=O)c1cccc(NC(=O)Nc2cccc(C(=O)Nc3cc(C(=O)Nc4ccc(S(=O)(=O)O)c5cc(S(=O)(=O)O)cc(S(=O)(=O)O)c45)ccc3C)c2)c1 [Suramin (8), Suramin, reference compound]
IC50 [2, 11]: 240 ± 70 µM

CC(C)CCCCCCCCC[C@@H]1CC(=O)N[C@@H](CCC(=O)O)C(=O)N[C@@H](CC(C)C)C(=O)N[C@H](CC(C)C)C(=O)N[C@@H](C(C)C)C(=O)N[C@@H](CC(=O)O)C(=O)N[C@H](CC(C)C)C(=O)N[C@@H](CC(C)C)C(=O)O1 [Surfactin (7), Surfactin, reference compound] (EL[dL]VD[dL]L; linker N-C via X1)
IC50 [2]: > 700 µM
IC50 [4]: > 600 µM

CN(C)CCCCC(=O)Nc1ccc(NC(=S)NC(=O)c2ccc(C(C)(C)C)cc2)cc1 [Tenovin-6 (5), Tenovin-6, reference compound]
IC50 [2, 11]: > 600 µM

[Zn+2] [Zn^2+]
inhibition of the Hst2 deacetylase reaction by metal ions (in words) [1]: inhibitors

hexachlorophene [Compound 14a]
kcat ([3]; substrate NAD+ varied): 0.00933 ± 0.0013 s⁻¹
Inhibition Mechanism [3, 7]: fully non-competitive; also recorded: NC (full)
Ki [3, 9]: 3.9 ± 0.7 µM
kcat ([3]; substrate acetyl-lysine varied): 0.0222 ± 0.0015 s⁻¹
Inhibition Mechanism [3, 8]: fully mixed
Ki [3, 10]: 2.5 ± 1 µM
α (mixed inhibition model) ([3]; with respect to the acetyl-lysine substrate): 13.4
percent of residual enzyme activity, SIRT2 [5, 13]: 18.5 ± 0.8%
potency estimated from few doses ([5]; read-out: apparent IC50, SIRT2, estimated from single concentration): < 50 µM
percent of residual enzyme activity, SIRT3 [6, 13]: 39.5 ± 1.6%
potency estimated from few doses ([6]; read-out: apparent IC50, SIRT3, estimated from single concentration): < 50 µM
IC50 ([2]; Table 4, Hst2): 12.5 ± 0.6 µM
IC50 values (range in words) ([2]; Table 5): low micromolar
IC50 [2, 11]: 12.5 ± 0.6 µM
IC50 [4, 12]: 34 ± 10 µM
